Patent publication US8574563B2 (Bristol-Myers Squibb Company, priority 2006, dated 2013)
pEC50: −log10 of the molar value.

System: HCV 1b-377-neo replicon cells
Assay: HCV replicon assay, HCV 1b-377-neo replicon cells (1b FRET)
Type: cell-based, Hepatitis C virus genotype 1b
Conditions: Hepatitis C virus, HCV 1b-377-neo replicon cells; HCV 1b genotype; read-out: EC50 range against HCV 1b (Table 2, Range)
Method in brief: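 Compounds tested in HCV genotype 1b-377-neo replicon cells with a FRET read-out. Cells resistant to a reference NS5A inhibitor through a Y2065H NS5A mutation were run alongside wild-type cells.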

| Structure (SMILES) | pEC50 |
| --- | --- |
| COC(=O)N[C@@H](C)C(=O)N1CCC[C@H]1c1ncc(-c2ccc(-c3ccc(-c4cnc([C@@H]5CCCN5C(=O)[C@@H](Nc5ncccn5)C(C)C)[nH]4)cc3)cc2)[nH]1 [cj-11a, methyl ((1S)-1-methyl-2-oxo-2-((2S)-2-(5-(4′-(2-((2S)-1-(N-2-pyrimidinyl-L-valyl)-2-pyrrolidinyl)-1H-imidazol-5-yl)-4-biphenylyl)-1H-imidazol-2-yl)-1-pyrrolidinyl)ethyl)carbamate] | 9.00 to 12.00 |
| COC(=O)N[C@@H](C(=O)N1CCC[C@H]1c1ncc(-c2ccc(-c3ccc(-c4cnc([C@@H]5CCCN5C(=O)[C@@H](Nc5ncccn5)C(C)C)[nH]4)cc3)cc2)[nH]1)c1ccccc1 [cj-11b, methyl ((1R)-2-oxo-1-phenyl-2-((2S)-2-(5-(4′-(2-((2S)-1-(N-2-pyrimidinyl-L-valyl)-2-pyrrolidinyl)-1H-imidazol-5-yl)-4-biphenylyl)-1H-imidazol-2-yl)-1-pyrrolidinyl)ethyl)carbamate] | 9.00 to 12.00 |
| CCN(CC)[C@@H](C(=O)N1CCC[C@H]1c1ncc(-c2ccc(-c3ccc(-c4cnc([C@@H]5CCCN5C(=O)[C@@H](Nc5ncccn5)C(C)C)[nH]4)cc3)cc2)[nH]1)c1ccccc1 [cj-11c, N-((1S)-1-(((2S)-2-(5-(4′-(2-((2S)-1-((2R)-2-(diethylamino)-2-phenylacetyl)-2-pyrrolidinyl)-1H-imidazol-5-yl)-4-biphenylyl)-1H-imidazol-2-yl)-1-pyrrolidinyl)carbonyl)-2-methylpropyl)-2-pyrimidinamine] | 9.00 to 12.00 |
| COC(=O)N[C@H](C(=O)N1CCC[C@H]1c1ncc(-c2ccc(-c3ccc(-c4cnc([C@@H]5CCCN5C(=O)[C@@H](NC5=NCCN5C)C(C)C)[nH]4)cc3)cc2)[nH]1)C(C)C [cj-11d, methyl ((1S)-2-methyl-1-(((2S)-2-(5-(4′-(2-((2S)-1-(N-(1-methyl-4,5-dihydro-1H-imidazol-2-yl)-L-valyl)-2-pyrrolidinyl)-1H-imidazol-5-yl)-4-biphenylyl)-1H-imidazol-2-yl)-1-pyrrolidinyl)carbonyl)propyl)carbamate] | 9.00 to 12.00 |
| COC(=O)N[C@H](C(=O)N1CCC[C@H]1c1ncc(-c2ccc(-c3ccc(-c4cnc([C@@H]5CCCN5C(=O)[C@@H](NC5=NCCN5)C(C)C)[nH]4)cc3)cc2)[nH]1)C(C)C [cj-11e, methyl ((1S)-1-(((2S)-2-(5-(4′-(2-((2S)-1-(N-(4,5-dihydro-1H-imidazol-2-yl)-L-valyl)-2-pyrrolidinyl)-1H-imidazol-5-yl)-4-biphenylyl)-1H-imidazol-2-yl)-1-pyrrolidinyl)carbonyl)-2-methylpropyl)carbamate] | 5.00 to 6.00 |
| COC(=O)N[C@@H](C)C(=O)N1CCC[C@H]1c1ncc(-c2ccc(-c3ccc(-c4cnc([C@@H]5CCCN5C(=O)[C@@H](NC5=NCCN5)C(C)C)[nH]4)cc3)cc2)[nH]1 [cj-11f, methyl ((1S)-2-((2S)-2-(5-(4′-(2-((2S)-1-(N-(4,5-dihydro-1H-imidazol-2-yl)-L-valyl)-2-pyrrolidinyl)-1H-imidazol-5-yl)-4-biphenylyl)-1H-imidazol-2-yl)-1-pyrrolidinyl)-1-methyl-2-oxoethyl)carbamate] | 7.00 to 9.00 |
| CCN(CC)[C@@H](C(=O)N1CCC[C@H]1c1ncc(-c2ccc(-c3ccc(-c4cnc([C@@H]5CCCN5C(=O)[C@@H](NC5=NCCN5)C(C)C)[nH]4)cc3)cc2)[nH]1)c1ccccc1 [cj-11g, N-((1S)-1-(((2S)-2-(5-(4′-(2-((2S)-1-((2R)-2-(diethylamino)-2-phenylacetyl)-2-pyrrolidinyl)-1H-imidazol-5-yl)-4-biphenylyl)-1H-imidazol-2-yl)-1-pyrrolidinyl)carbonyl)-2-methylpropyl)-4,5-dihydro-1H-imidazol-2-amine] | 7.00 to 9.00 |
| COC(=O)N[C@H](C(=O)N1CCC[C@H]1c1ncc(-c2ccc(-c3ccc(-c4cnc([C@@H]5CCCN5C(=O)[C@H](Nc5ncccn5)C(C)C)[nH]4)cc3)cc2)[nH]1)C(C)C [cj-11i, methyl ((1S)-2-methyl-1-(((2S)-2-(5-(4′-(2-((2S)-1-(N-2-pyrimidinyl-D-valyl)-2-pyrrolidinyl)-1H-imidazol-5-yl)-4-biphenylyl)-1H-imidazol-2-yl)-1-pyrrolidinyl)carbonyl)propyl)carbamate] | 9.00 to 12.00 |
| COC(=O)N[C@@H](C)C(=O)N1CCC[C@H]1c1ncc(-c2ccc(-c3ccc(-c4cnc([C@@H]5CCCN5C(=O)[C@H](Nc5ncccn5)C(C)C)[nH]4)cc3)cc2)[nH]1 [cj-11j, methyl ((1S)-1-methyl-2-oxo-2-((2S)-2-(5-(4′-(2-((2S)-1-(N-2-pyrimidinyl-D-valyl)-2-pyrrolidinyl)-1H-imidazol-5-yl)-4-biphenylyl)-1H-imidazol-2-yl)-1-pyrrolidinyl)ethyl)carbamate] | 9.00 to 12.00 |
| CCN(CC)[C@@H](C(=O)N1CCC[C@H]1c1ncc(-c2ccc(-c3ccc(-c4cnc([C@@H]5CCCN5C(=O)[C@H](Nc5ncccn5)C(C)C)[nH]4)cc3)cc2)[nH]1)c1ccccc1 [cj-11k, N-((1R)-1-(((2S)-2-(5-(4′-(2-((2S)-1-((2R)-2-(diethylamino)-2-phenylacetyl)-2-pyrrolidinyl)-1H-imidazol-5-yl)-4-biphenylyl)-1H-imidazol-2-yl)-1-pyrrolidinyl)carbonyl)-2-methylpropyl)-2-pyrimidinamine] | 9.00 to 12.00 |
| COC(=O)N[C@H](C(=O)N1CCC[C@H]1c1ncc(-c2ccc(-c3ccc(-c4cnc([C@@H]5CCCN5C(=O)[C@H](NC5=NCCN5C)C(C)C)[nH]4)cc3)cc2)[nH]1)C(C)C [cj-11m, methyl ((1S)-2-methyl-1-(((2S)-2-(5-(4′-(2-((2S)-1-(N-(1-methyl-4,5-dihydro-1H-imidazol-2-yl)-D-valyl)-2-pyrrolidinyl)-1H-imidazol-5-yl)-4-biphenylyl)-1H-imidazol-2-yl)-1-pyrrolidinyl)carbonyl)propyl)carbamate] | 7.00 to 9.00 |
| COC(=O)N[C@H](C(=O)N1CCC[C@H]1c1ncc(-c2ccc(-c3ccc(-c4cnc([C@@H]5CCCN5C(=O)[C@H](NC5=NCCN5)C(C)C)[nH]4)cc3)cc2)[nH]1)C(C)C [cj-11n, methyl ((1S)-1-(((2S)-2-(5-(4′-(2-((2S)-1-(N-(4,5-dihydro-1H-imidazol-2-yl)-D-valyl)-2-pyrrolidinyl)-1H-imidazol-5-yl)-4-biphenylyl)-1H-imidazol-2-yl)-1-pyrrolidinyl)carbonyl)-2-methylpropyl)carbamate] | 7.00 to 9.00 |
| COC(=O)N[C@H](C(=O)N1CCC[C@H]1c1ncc(-c2ccc(-c3ccc(-c4cnc([C@@H]5CCCN5C(=O)[C@H](NC5=NCCN5)C(C)C)[nH]4)cc3)cc2)[nH]1)C1CC1 [cj-11o, methyl ((1S)-1-cyclopropyl-2-((2S)-2-(5-(4′-(2-((2S)-1-(N-(4,5-dihydro-1H-imidazol-2-yl)-D-valyl)-2-pyrrolidinyl)-1H-imidazol-5-yl)-4-biphenylyl)-1H-imidazol-2-yl)-1-pyrrolidinyl)-2-oxoethyl)carbamate] | 7.00 to 9.00 |
| CCN(CC)[C@@H](C(=O)N1CCC[C@H]1c1ncc(-c2ccc(-c3ccc(-c4cnc([C@@H]5CCCN5C(=O)[C@H](NC5=NCCN5)C(C)C)[nH]4)cc3)cc2)[nH]1)c1ccccc1 [cj-11p, N-((1R)-1-(((2S)-2-(5-(4′-(2-((2S)-1-((2R)-2-(diethylamino)-2-phenylacetyl)-2-pyrrolidinyl)-1H-imidazol-5-yl)-4-biphenylyl)-1H-imidazol-2-yl)-1-pyrrolidinyl)carbonyl)-2-methylpropyl)-4,5-dihydro-1H-imidazol-2-amine] | 9.00 to 12.00 |
| COC(=O)N[C@H](C(=O)N1CCC[C@H]1c1ncc(-c2ccc(-c3ccc(-c4cnc([C@@H]5CCCN5C(=O)[C@@H](NC5=NCCS5)C(C)C)[nH]4)cc3)cc2)[nH]1)C(C)C [cj-15c, methyl ((1S)-1-(((2S)-2-(5-(4′-(2-((2S)-1-(N-(4,5-dihydro-1,3-thiazol-2-yl)-L-valyl)-2-pyrrolidinyl)-1H-imidazol-5-yl)-4-biphenylyl)-1H-imidazol-2-yl)-1-pyrrolidinyl)carbonyl)-2-methylpropyl)carbamate] | 9.00 to 12.00 |
| COC(=O)N[C@H](C(=O)N1CCC[C@H]1c1ncc(-c2ccc(-c3ccc(-c4cnc([C@@H]5CCCN5C(=O)[C@@H](Nc5ccncn5)C(C)C)[nH]4)cc3)cc2)[nH]1)C(C)C [cj-15d, methyl ((1S)-2-methyl-1-(((2S)-2-(5-(4′-(2-((2S)-1-(N-4-pyrimidinyl-L-valyl)-2-pyrrolidinyl)-1H-imidazol-5-yl)-4-biphenylyl)-1H-imidazol-2-yl)-1-pyrrolidinyl)carbonyl)propyl)carbamate] | 9.00 to 12.00 |
| COC(=O)N[C@H](C(=O)N1CCC[C@H]1c1ncc(-c2ccc(-c3ccc(-c4cnc([C@@H]5CCCN5C(=O)[C@@H](Nc5noc(N)n5)C(C)C)[nH]4)cc3)cc2)[nH]1)C(C)C [cj-16, methyl ((1S)-1-(((2S)-2-(5-(4′-(2-((2S)-1-(N-(5-amino-1,2,4-oxadiazol-3-yl)-L-valyl)-2-pyrrolidinyl)-1H-imidazol-5-yl)-4-biphenylyl)-1H-imidazol-2-yl)-1-pyrrolidinyl)carbonyl)-2-methylpropyl)carbamate] | 9.00 to 12.00 |
| COC(=O)N[C@H](C(=O)N1CCC[C@H]1c1ncc(-c2ccc(-c3ccc(-c4cnc([C@@H]5CCCN5C(=O)[C@@H](NC(=NC#N)N(C)C)C(C)C)[nH]4)cc3)cc2)[nH]1)C(C)C [cj-17, methyl ((1S)-1-(((2S)-2-(5-(4′-(2-((2S)-1-(N-(cyano(dimethyl)carbamimidoyl)-L-valyl)-2-pyrrolidinyl)-1H-imidazol-5-yl)-4-biphenylyl)-1H-imidazol-2-yl)-1-pyrrolidinyl)carbonyl)-2-methylpropyl)carbamate] | 9.00 to 12.00 |
| COC(=O)N[C@H](C(=O)N1CCC[C@H]1c1ncc(-c2ccc(-c3ccc(-c4cnc([C@@H]5CCCN5C(=O)[C@@H](Nc5cccnc5)C(C)C)[nH]4)cc3)cc2)[nH]1)C(C)C [cj-20, methyl ((1S)-2-methyl-1-(((2S)-2-(5-(4′-(2-((2S)-1-(N-3-pyridinyl-L-valyl)-2-pyrrolidinyl)-1H-imidazol-5-yl)-4-biphenylyl)-1H-imidazol-2-yl)-1-pyrrolidinyl)carbonyl)propyl)carbamate] | 9.00 to 12.00 |
